Paper PMC6838151 (Scientific Reports, 2019)
Entries after “also recorded” stand apart in the source; their conditions may differ.

Assays:
[1] = test system: C. albicans CAF2-1; assay: microbe, parasite or virus in culture; assay type: cell-based, Candida albicans; conditions: for effect of combination with higher Flc concentrations: KeP (0.39 uM) / KeOP (1.56 uM) combined with 3.25 and 6.25 uM Flc, CAF2-1
Procedure: The synergistic effects of KeOP/KeP with Flc were determined using the M27-A3 method with modifications. Flc and KeOP/KeP stock solutions in DMSO (10 mM) were (alone and simultaneously) diluted in RPMI-1640 medium to obtain final concentrations of^1/8; ^1/4; ^1/2; 1 × MIC50 towards C. albicans CAF2-1 strain in microdilution sterile plates (Sarstedt). Statistical significance analysis was performed using Student’s t-test ([…], unpaired) comparing viability in the presence of corresponding Flc concentrations with/without KeOP/KeP.

[2] = test system: hASCs (human adipose-derived stromal cells); assay: Cytotoxicity IC50, TOX-8 resazurin assay, hASCs, 24 h; assay type: cell-based; conditions: hASCs, TOX-8 assay, 24 h
Procedure: Human Adipose Tissue-derived Stem Cells (hASCs) were isolated from subcutaneous adipose tissue fragments harvested from non-diabetic female donors (age range 33–38, n = 2) during standard surgical procedure of total hip arthroplasty. Immediately after collection of tissue, the samples were placed in sterile tissue-transport medium (Hank’s Balanced Salt Solution (HBSS) supplemented with 1% Penicillin/Streptomycin/Amphotericin B solution (P/S/A). Mesenchymal stromal cell isolation was performed using enzymatic digestion of extracellular matrix with collagenase type I. Before digestion, tissue specimens were washed twice with HBSS and incubated in collagenase type I solution (1 mg/mL) at 37 °C for 40 min. The digest was subsequently centrifuged (1200 × g; 10 minutes; room temperature) and the cell pellet was resuspended in Dulbecco’s modified Eagle’s medium (DMEM) with Nutrient F-12 Ham, 10% of Fetal Bovine Serum (FBS), and 1% of P/S/A, transferred to a culture flask, and kept in culture under optimal conditions (37 °C in a humidified atmosphere of 5% CO2). The medium was refreshed every 2–3 days. At 80–90% confluence, the cells were passaged using trypsin solution (TrypLE Express, Life Technologies, California, USA). At passage 3, hASCs were collected and cellular phenotype was confirmed by the high expression of markers CD44, CD29, CD73, CD105 and low expression of CD45. Moreover, the trilineage differentiation capacity of ASCs was confirmed as previously described.
The IC50 values were determined using in vitro Toxicology TOX-8 Assay Kit (resazurin based) according to the manufacturer’s protocol. For this assay, cells were seeded in a 96-well plate at a density of 5 × 10^3 cells/well. The cells were pre-incubated in drug-free complete medium for 24 h before adding various concentrations of the compounds to be investigated. Stock solutions of the compounds were prepared in DMSO following serial dilutions in DMEM with Nutrient F-12 Ham complete medium. The cells exposure period was 24 h. After that time media were replaced with 10% v/v resazurin dye solution in fresh complete culture medium. Incubation was carried out for 2 h at 37 °C in the CO2 incubator. Reduction of the dye was measured spectrophotometrically at 600 nm and 690 nm reference wavelength (Epoch, Biotek). Absorbance measurements allowed the determination of viable treated cells relative to untreated controls using the inflection point of a dose-response graph. IC50 values were estimated as duplicates of triplicate readings in two independent experiments.

[3] = test system: hASCs; assay: Confocal imaging of mitochondrial network (MitoRed) and F-actin (Phalloidin Atto 590) in hASCs; assay type: cell-based, human; conditions: 20 µM, 24 h
Procedure: The mitochondrial network was visualized using MitoRed staining. After 24-hours treatment with either Ke, KeP or KeOP, the media were removed and replaced with MitoRed dye in 1:1000 dilution in fresh complete media. Cells were incubated for 30 minutes at 37 °C, then washed with Phosphate Buffered Saline (PBS), fixed with 4% paraformaldehyde (PFA) solution, washed three times and nuclei were counterstained with diamidino-2-phenylindole (DAPI).
In order to perform F-actin imaging, cells were fixed with 4% PFA solution, washed with PBS and then permeabilized using 0.5% TX-100 (incubation 15 minutes, room temperature). The cells were rinsed and incubated with Phalloidin-Atto 590 solution in PBS (dilution 1:1000) at 37 °C for 30 minutes in the dark. After washing, the cells were counterstained with DAPI.
Cells were observed and images were taken using confocal microscopy performed with a Leica TCS-SP8 laser scanning confocal microscope. Data were further processed with the use of ImageJ software.

[4] = test system: HepaRG cells; conditions: cited from earlier work
[5] = Candida albicans, CAF21, read-out: Viability of C. albicans CAF2-1

For `O=P(CN1CCN(c2ccc(OC[C@H]3CO[C@](Cn4ccnc4)(c4ccc(Cl)cc4Cl)O3)cc2)CC1)(c1ccccc1)c1ccccc1` (racemic) [KeOP, Ph2P(O)CH2-Ke], the viability at 0.1 µM [1, 5] was 102 ± 2.22%, the viability at 0.2 µM [1, 5] was 93.9 ± 7.22% and the viability at 0.39 µM [1, 5] was 91.2 ± 10.7%. For the same molecule, the “effect of combination with higher Flc concentrations” value [1] was “fungicidal effect”.
With `S=P(CN1CCN(c2ccc(OC[C@H]3CO[C@](Cn4ccnc4)(c4ccc(Cl)cc4Cl)O3)cc2)CC1)(c1ccccc1)c1ccccc1` [KeSP, Ph2P(S)CH2-Ke] the “IC50 (cytotoxicity, hASCs viability)” value [2] was “not cytotoxic in the tested concentration range; also recorded: not toxic”.
With `Clc1ccc([C@@]2(Cn3ccnc3)OC[C@H](COc3ccc(N4CCN(CP(c5ccccc5)c5ccccc5)CC4)cc3)O2)c(Cl)c1` (racemic) [KeP, Ph2PCH2-Ke] the “MIC50 of Flc in combination” value ([1]; C. albicans CAF2-1, with KeP (0.39 uM), reduced from 6.25 uM) was 1.56 µM, the viability at 0.39 µM [1, 5] was 115 ± 9.06% and the viability at 0.78 µM [1, 5] was 102 ± 1.98%. For the same molecule, the viability at 1.56 µM [1, 5] was 96.8 ± 3.21%, the “effect of combination with higher Flc concentrations” value [1] was “fungicidal effect” and the “mitochondrial membrane potential (MitoRed staining)” value [3] was “lowest mitochondrial membrane potential”. The “number of mitochondria (MitoRed staining)” value [3] was “lowest number of mitochondria”.
For `CC(=O)N1CCN(c2ccc(OCC3COC(Cn4ccnc4)(c4ccc(Cl)cc4Cl)O3)cc2)CC1` (stereo not shown) [Ke, ketoconazole, reference compound], the “concentration at which cytotoxicity started” value [4] is given as 100 µM.
